“And” between values parts separate entries of the source, which are not always exact repeats. Identical values can stand only once.

A word on the melting point: it is the temperature of the solid-liquid transition. Consider `CCCN(CC1CC1)c1c([N+](=O)[O-])cc(C(F)(F)F)cc1[N+](=O)[O-]` [Profluralin], for which the melting point amounted to 32 °C.
Take `Cc1nc(/C(C#N)=C\c2ccc(Cl)cc2Cl)sc1/N=N/c1ccc(F)cc1`: the melting point stood at 139 °C.
The value for `Cc1ccc(F)cc1B(O)O` [5-fluoro-2-methylbenzeneboronic acid] was 149 °C; that for `Cc1cc(Cl)c(C)cc1N` [4-chloro-2,5-dimethylaniline] was 92 °C; that for `CC(C)C1=CC2=CC[C@@H]3[C@](C)(CCC[C@@]3(C)C(=O)O)[C@H]2CC1` [abietic acid] was 161 °C.
In the case of `CC(=O)OC1CCC2(C)C(=CCC3C2CCC2(C)C3CCC2(O)C#Cc2ccccc2)C1` (stereo unspecified) [17-hydroxy-21-phenylpregn-5-en-20-yn-3-yl acetate] it was 148 °C; in that of `Cc1cc(C)c(C(=O)C(=O)O)c(C)c1` [mesitylglyoxylic acid], 121 °C; in that of `CCO[Si](OCC)(OCC)OCC` [tetraethoxysilane], -85 °C.
On to `COc1ccc(B(O)O)c(C)c1` [4-methoxy-2-methylbenzeneboronic acid], for which the melting point was determined as 191 °C.
`C/C(=C\C=C\c1ccccc1)C(=O)OC(=O)/C(C)=C/C=C/c1ccccc1` [(2E,4E)-2-methyl-5-phenylpenta-2,4-dienoic anhydride] displayed a melting point of 113 °C.
The value for `CC=C(/C)C` [2-Methylbut-2-ene] was -134 °C; that for `Nc1ccc(/C=C/c2ccc([N+](=O)[O-])cc2)c([N+](=O)[O-])c1` [3-nitro-4-[(E)-2-(4-nitrophenyl)ethenyl]aniline] was 202 °C.
The value for `CC(=O)OC[C@H]1O[C@@H](S)[C@H](OC(C)=O)[C@@H](OC(C)=O)[C@@H]1OC(C)=O` [1-thio-beta-D-glucose tetraacetate] was 116 °C; that for `N#Cc1ccccc1[N+](=O)[O-]` [o-nitrobenzonitrile] was 109 °C.
The value for `CCOC(=O)C(C#N)=Cc1ccc(Cl)cc1` [Ethyl 3-(4-chlorophenyl)-2-cyanoacrylate] was 138 °C.
For `O=[N+]([O-])c1ccc(Cl)c(Cl)c1Cl` [2,3,4-trichloronitrobenzene], the melting point was 56 °C and 55.5 °C.
In the case of `O=C(O)c1cc([N+](=O)[O-])ccc1Br` [2-bromo-5-nitrobenzoic acid] it was 180 °C.
Turning to `O=C(c1ccccc1)C1CCCCC1` [cyclohexyl phenyl ketone], the melting point was 55 °C.
In the case of `Nc1ccc(Cl)cc1N` [4-chloro-o-phenylenediamine] it was 72 °C.
In the case of `O=c1[nH]c2ccc([N+](=O)[O-])cc2o1` [6-nitro-2(3h)-benzoxazolone] it was 246 °C.
The value for `O=[N+]([O-])c1cccc(I)c1` [1-iodo-3-nitrobenzene] was 38 °C; that for `O=C(O)COc1ccccc1` [phenoxyacetic_acid] was 100 °C.
As to `c1ccncc1` [Pyridine], the melting point is -42 °C.
The value for `OCC(O)COc1ccc(Cl)cc1` (stereo unspecified) [3-(4-chlorophenoxy)-1,2-propanediol] was 80 °C; that for `CO[SiH](OC)OC` [Trimethoxysilane] was -115 °C; that for `C[C@]12CCC(=O)C=C1CC[C@@H]1[C@@H]2[C@@H](O)C[C@]2(C=O)[C@@H](C(=O)CO)CC[C@@H]12` [Aldosterone] was 166 °C.
The value for `Cc1cc(Br)cc(C)c1N=C=S` [4-bromo-2,6-dimethylphenyl isothiocyanate] was 80 °C; that for `CCC1(O)CCC(c2ccccc2)c2ccccc21` (stereo unspecified) [1-ethyl-4-phenyl-1,2,3,4-tetrahydronaphthalen-1-ol] was 112 °C; that for `Oc1cccc(O)c1O` [pyrogallol] was 133 °C.
The value for `O=C1C(CCS(=O)c2ccccc2)C(=O)N(c2ccccc2)N1c1ccccc1` (stereo unspecified) [Sulfinpyrazone] was 136 °C; that for `NCC(O)c1ccccc1` (stereo unspecified) [2-Amino-1-phenylethanol] was 57 °C.
